Key:
USP22 = biological target: T1, USP22 (Mus musculus, UniProt Q5DU02); test: Biological screening of the 25 chemicals, FOXP3 MFI reduction as readout; type: cell-based; conditions: biological validation of the 25 chemicals
T1 construct: endogenous in cells; probably murine iTreg
T1 sequence (Q5DU02 1-525): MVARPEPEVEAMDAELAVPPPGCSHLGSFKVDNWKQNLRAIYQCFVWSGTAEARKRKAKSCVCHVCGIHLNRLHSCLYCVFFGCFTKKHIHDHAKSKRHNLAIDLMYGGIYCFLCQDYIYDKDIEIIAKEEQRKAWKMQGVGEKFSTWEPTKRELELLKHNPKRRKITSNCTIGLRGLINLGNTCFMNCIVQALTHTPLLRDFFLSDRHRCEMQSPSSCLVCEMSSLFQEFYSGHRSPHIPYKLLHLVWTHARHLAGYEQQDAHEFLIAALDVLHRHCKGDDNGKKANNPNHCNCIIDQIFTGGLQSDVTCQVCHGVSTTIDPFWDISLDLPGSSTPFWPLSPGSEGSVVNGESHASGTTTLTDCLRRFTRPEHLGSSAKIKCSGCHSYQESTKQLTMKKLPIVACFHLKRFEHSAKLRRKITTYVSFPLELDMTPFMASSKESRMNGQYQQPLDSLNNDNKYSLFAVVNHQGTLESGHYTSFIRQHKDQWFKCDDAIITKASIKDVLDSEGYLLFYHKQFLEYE
T1 sequence (A2AWT3 1-347 partner): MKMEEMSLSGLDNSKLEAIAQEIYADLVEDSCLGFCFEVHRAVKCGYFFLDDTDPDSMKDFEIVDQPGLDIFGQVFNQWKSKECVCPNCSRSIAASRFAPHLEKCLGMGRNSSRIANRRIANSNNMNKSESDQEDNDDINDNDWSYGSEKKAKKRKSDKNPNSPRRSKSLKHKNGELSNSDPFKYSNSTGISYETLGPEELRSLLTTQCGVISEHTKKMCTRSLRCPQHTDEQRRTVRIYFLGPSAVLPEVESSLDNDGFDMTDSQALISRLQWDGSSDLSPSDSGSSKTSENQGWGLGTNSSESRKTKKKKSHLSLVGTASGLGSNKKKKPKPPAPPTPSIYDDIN
T1 sequence (Q9JIX0 1-101 partner): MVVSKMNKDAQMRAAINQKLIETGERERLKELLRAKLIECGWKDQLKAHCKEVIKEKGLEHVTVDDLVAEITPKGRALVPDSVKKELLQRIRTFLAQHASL
Source text: We then used both Lipinski's Rule and Veber's Rule to filter through the Specs database and found a total of 240K compounds binding to the catalytic pocket of our Usp22 model. We then filtered the top 100 compounds ranked by docking affinity by MD and MM/PBSA methods and were left with 25 compounds (Table 1). This limited number of compounds allowed us for further biological screening. As USP22 suppression leads to dramatic reduction in FOXP3 expression levels, we utilized FOXP3 MFI reduction as a readout for the biological validation of USP22 inhibitory efficacy by each of the 25 chemicals. […] The compound S02, structure shown in FIG. 6A, bound stably in the USP22 catalytic domain pocket shown by the RMSD trajectory (FIG. 14E) with strong binding energies to our USP22-md model (FIG. 14F). […] Therefore, future generations of Usp22 inhibitors should take into considerations not only the hydrophobic residues, but also the interaction between the inhibitor and the charged and polar residues on the surface of the binding pocket.

LLC1 cells = LLC1 cells in vitro: counts, viability, growth; type: cell-based
Experimental: (§1) FIG. 17: Usp22i-S02 inhibits tumor growth in vitro and in vivo. A, In vitro counts of LLC1 after treatment with Usp22i-S02 under various concentrations for 24 hours (n=2). B, In vitro viability of LLC1 after treatment with Usp22i-S02 under various concentrations for 24 hours (n=2). C, In vitro relative growth of LLC1 cells treated with 10 ug/ml of Usp22i-S02 relative to DMSO treated control for 7 days via OD600 (n=4). D, Growth curve of 1 million subcutaneously injected LLC1 cells into RAG−/− mice treated for 3 days Usp22i-S02 relative to DMSO control injections at day 15 of tumor growth (n=4). C-D, Two-way ANOVA with Sidaks's multiple comparisons between rows relative to control was performed to determine statistical significance. All data are presented as mean±stdev. NS, not significant. *P<0.05, **P<0.01, ***P<0.001, ****P<0.0001.
(§2) As Usp22 is also an important oncogene (43, 44), we were interested in the potential dual-therapeutic function of Usp22i-S02.

LLC1 tumors = test: Established LLC1 tumors in Rag−/− mice; type: in vivo; conditions: Rag−/− mice with established LLC1 tumors, treated 3 days
Experimental: as §1, §2

N#Cc1c2c(c(Nc3ccccc3)n3c1nc1ccccc13)CCCC2 [Chemical S02, 11-anilino-7,8,9,10-tetrahydro-benzimidazo [1,2-b] isoquinoline-6-carbonitrile]
efficacy in downregulating FOXP3 expression (USP22): strong efficacy in downregulating FOXP3 expression
tumor cell counts, viability and growth (LLC1 cells): decreased tumor cell counts, viability, and growth
tumor growth (LLC1 tumors): small but statistically significant decrease in tumor growth

From patent publication US20240238274A1, “INHIBITORS OF UBIQUITIN SPECIFIC PEPTIDASE 22 (USP22) AND USES THEREOF FOR TREATING DISEASE AND DISORDERS” (Northwestern University, priority 2021, published 2024)
